System: patients with advanced solid tumors
Experiment: Safety: adverse events (NCI CTCAE v3.0), ECG
Type: in vivo, human
Description: Patients’ demographics and medical history were recorded at baseline. Physical examination and PS were assessed at baseline and on Day 1 of each cycle. Adverse events (AEs), vital signs, hematology and chemistry values, and creatinine clearance were assessed at baseline and weekly during treatment. Toxicity was graded using National Cancer Institute Common Terminology Criteria for Adverse Events (NCI CTCAE), version 3.0. An electrocardiogram (ECG) was performed at baseline, before and after treatment on Days 1 and 15 of Cycles 1 and 2, and on Day 15 of even-numbered cycles thereafter. CT scans were done at baseline and every 8 weeks thereafter. Tumor response was assessed using Response Evaluation Criteria in Solid Tumors (RECIST, v1.0), with confirmation of responses performed at least 4 weeks later.

CC(C)c1cc(-c2n[nH]c(=O)n2-c2ccc3c(ccn3C)c2)c(O)cc1O [Ganetespib, 5-[2,4-dihydroxy-5-(1 methyl-ethyl)phenyl]-2,4 dihydro-4-(1-methyl-1H indol-5 yl)-3H-1,2,4 triazole-3-one]
100%: Incidence of diarrhea (259 mg/m^2 dose level)
1 (16.7) n (%): Abdominal pain, AE of any grade, Number (%) of patients (259 mg/m^2, n = 6) | Abdominal pain, serious adverse events, Number (%) of patients (259 mg/m^2, n = 6) | Arthralgia, CTCAE Grade 3 and 4 AE, Number (%) of patients (259 mg/m^2, n = 6) | Asthenia, serious adverse events, Number (%) of patients (259 mg/m^2, n = 6) | Constipation, AE of any grade, Number (%) of patients (259 mg/m^2, n = 6) | Decreased appetite, AE of any grade, Number (%) of patients (259 mg/m^2, n = 6) | Dehydration, CTCAE Grade 3 and 4 AE, Number (%) of patients (259 mg/m^2, n = 6) | Dehydration, serious adverse events, Number (%) of patients (259 mg/m^2, n = 6) | Diarrhea, CTCAE Grade 3 and 4 AE, Number (%) of patients (259 mg/m^2, n = 6) | Dry mouth, AE of any grade, Number (%) of patients (259 mg/m^2, n = 6) | Dyspnea, AE of any grade, Number (%) of patients (259 mg/m^2, n = 6) | Extremity pain, AE of any grade, Number (%) of patients (259 mg/m^2, n = 6) | Fatigue, CTCAE Grade 3 and 4 AE, Number (%) of patients (259 mg/m^2, n = 6) | Headache, AE of any grade, Number (%) of patients (259 mg/m^2, n = 6) | Hypokalemia, AE of any grade, Number (%) of patients (259 mg/m^2, n = 6) | Peripheral edema, AE of any grade, Number (%) of patients (259 mg/m^2, n = 6) | Pneumonia, serious adverse events, Number (%) of patients (259 mg/m^2, n = 6) | Rash, AE of any grade, Number (%) of patients (259 mg/m^2, n = 6) | Weight decreased, AE of any grade, Number (%) of patients (259 mg/m^2, n = 6)
3 (50) n (%): Any event, serious adverse events, Number (%) of patients (259 mg/m^2, n = 6) | Dehydration, AE of any grade, Number (%) of patients (259 mg/m^2, n = 6) | Urinary tract infection, AE of any grade, Number (%) of patients (259 mg/m^2, n = 6) | Vomiting, AE of any grade, Number (%) of patients (259 mg/m^2, n = 6)
1 (4.5) n (%): ALT elevation, CTCAE Grade 3 and 4 AE, Number (%) of patients (150-216 mg/m^2, n = 22) | Abdominal pain, serious adverse events, Number (%) of patients (150-216 mg/m^2, n = 22) | Asthenia, CTCAE Grade 3 and 4 AE, Number (%) of patients (150-216 mg/m^2, n = 22) | Asthenia, serious adverse events, Number (%) of patients (150-216 mg/m^2, n = 22)
17 (68) n (%): Any event, CTCAE Grade 3 and 4 AE, Number (%) of patients (7-114 mg/m^2, n = 25)
4 (16) n (%): Back pain, AE of any grade, Number (%) of patients (7-114 mg/m^2, n = 25) | Dyspnea, AE of any grade, Number (%) of patients (7-114 mg/m^2, n = 25) | Extremity pain, AE of any grade, Number (%) of patients (7-114 mg/m^2, n = 25) | Rash, AE of any grade, Number (%) of patients (7-114 mg/m^2, n = 25) | Vomiting, AE of any grade, Number (%) of patients (7-114 mg/m^2, n = 25)
7 (28) n (%): Nausea, AE of any grade, Number (%) of patients (7-114 mg/m^2, n = 25)
83.3%: Incidence of fatigue (259 mg/m^2 dose level)
2 (9.1) n (%): Back pain, AE of any grade, Number (%) of patients (150-216 mg/m^2, n = 22)
2 (33.3) n (%): Asthenia, AE of any grade, Number (%) of patients (259 mg/m^2, n = 6) | Asthenia, CTCAE Grade 3 and 4 AE, Number (%) of patients (259 mg/m^2, n = 6) | Back pain, AE of any grade, Number (%) of patients (259 mg/m^2, n = 6) | Dizziness, AE of any grade, Number (%) of patients (259 mg/m^2, n = 6) | Insomnia, AE of any grade, Number (%) of patients (259 mg/m^2, n = 6)
9 (36) n (%): Abdominal pain, AE of any grade, Number (%) of patients (7-114 mg/m^2, n = 25)
3 (12) n (%): Abdominal distension, AE of any grade, Number (%) of patients (7-114 mg/m^2, n = 25) | Hyponatremia, CTCAE Grade 3 and 4 AE, Number (%) of patients (7-114 mg/m^2, n = 25) | Peripheral edema, AE of any grade, Number (%) of patients (7-114 mg/m^2, n = 25) | ALT elevated, AE of any grade, Number (%) of patients (7-114 mg/m^2, n = 25, second of two ALT elevated lines)
10 (45.5) n (%): Abdominal pain, AE of any grade, Number (%) of patients (150-216 mg/m^2, n = 22)
6 (24) n (%): Any event, serious adverse events, Number (%) of patients (7-114 mg/m^2, n = 25)
6 (100) n (%): Any event, AE of any grade, Number (%) of patients (259 mg/m^2, n = 6) | Diarrhea, AE of any grade, Number (%) of patients (259 mg/m^2, n = 6)
6 (27.3) n (%): Any event, serious adverse events, Number (%) of patients (150-216 mg/m^2, n = 22)
3 (13.6) n (%): Abdominal distension, AE of any grade, Number (%) of patients (150-216 mg/m^2, n = 22)
14 (63.6) n (%): Any event, CTCAE Grade 3 and 4 AE, Number (%) of patients (150-216 mg/m^2, n = 22)
5 (83.3) n (%): Any event, CTCAE Grade 3 and 4 AE, Number (%) of patients (259 mg/m^2, n = 6) | Fatigue, AE of any grade, Number (%) of patients (259 mg/m^2, n = 6)
4 (18.2) n (%): AST elevated, AE of any grade, Number (%) of patients (150-216 mg/m^2, n = 22) | Asthenia, AE of any grade, Number (%) of patients (150-216 mg/m^2, n = 22)
25 (100) n (%): Any event, AE of any grade, Number (%) of patients (7-114 mg/m^2, n = 25)
22 (100) n (%): Any event, AE of any grade, Number (%) of patients (150-216 mg/m^2, n = 22)
2 (8) n (%): ALT elevation, CTCAE Grade 3 and 4 AE, Number (%) of patients (7-114 mg/m^2, n = 25) | Asthenia, AE of any grade, Number (%) of patients (7-114 mg/m^2, n = 25) | Decreased appetite, AE of any grade, Number (%) of patients (7-114 mg/m^2, n = 25) | Dry mouth, AE of any grade, Number (%) of patients (7-114 mg/m^2, n = 25) | Headache, AE of any grade, Number (%) of patients (7-114 mg/m^2, n = 25) | Hypokalemia, AE of any grade, Number (%) of patients (7-114 mg/m^2, n = 25) | Hypophosphatemia, CTCAE Grade 3 and 4 AE, Number (%) of patients (7-114 mg/m^2, n = 25) | Insomnia, AE of any grade, Number (%) of patients (7-114 mg/m^2, n = 25) | Musculoskeletal chest pain, AE of any grade, Number (%) of patients (7-114 mg/m^2, n = 25) | Spinal cord compression, CTCAE Grade 3 and 4 AE, Number (%) of patients (7-114 mg/m^2, n = 25) | Urinary tract infection, AE of any grade, Number (%) of patients (7-114 mg/m^2, n = 25)
One patient: Patients with Grade 1 atrio-ventricular block (259 mg/m^2, history of coronary artery disease, possibly related to study drug)
48%: Incidence of fatigue (7–114 mg/m^2 dose levels)
4 (66.7) n (%): Nausea, AE of any grade, Number (%) of patients (259 mg/m^2, n = 6)
1 (4) n (%): Arthralgia, CTCAE Grade 3 and 4 AE, Number (%) of patients (7-114 mg/m^2, n = 25) | Asthenia, CTCAE Grade 3 and 4 AE, Number (%) of patients (7-114 mg/m^2, n = 25) | Dehydration, AE of any grade, Number (%) of patients (7-114 mg/m^2, n = 25) | Dehydration, CTCAE Grade 3 and 4 AE, Number (%) of patients (7-114 mg/m^2, n = 25) | Diarrhea, CTCAE Grade 3 and 4 AE, Number (%) of patients (7-114 mg/m^2, n = 25) | Dizziness, AE of any grade, Number (%) of patients (7-114 mg/m^2, n = 25) | Fatigue, CTCAE Grade 3 and 4 AE, Number (%) of patients (7-114 mg/m^2, n = 25) | Hyperbilirubinemia, CTCAE Grade 3 and 4 AE, Number (%) of patients (7-114 mg/m^2, n = 25) | Serum amylase elevated, CTCAE Grade 3 and 4 AE, Number (%) of patients (7-114 mg/m^2, n = 25) | Weight decreased, AE of any grade, Number (%) of patients (7-114 mg/m^2, n = 25)
80%: Incidence of diarrhea (7–114 mg/m^2 dose levels)
5 (22.7) n (%): Anemia, AE of any grade, Number (%) of patients (150-216 mg/m^2, n = 22)
0 n (%): ALT elevation, CTCAE Grade 3 and 4 AE, Number (%) of patients (259 mg/m^2, n = 6) | AST elevated, AE of any grade, Number (%) of patients (259 mg/m^2, n = 6) | Abdominal distension, AE of any grade, Number (%) of patients (259 mg/m^2, n = 6) | Anemia, AE of any grade, Number (%) of patients (259 mg/m^2, n = 6) | Hyperbilirubinemia, CTCAE Grade 3 and 4 AE, Number (%) of patients (259 mg/m^2, n = 6) | Hypokalemia, CTCAE Grade 3 and 4 AE, Number (%) of patients (259 mg/m^2, n = 6) | Hyponatremia, CTCAE Grade 3 and 4 AE, Number (%) of patients (259 mg/m^2, n = 6) | Hypophosphatemia, AE of any grade, Number (%) of patients (259 mg/m^2, n = 6) | Hypophosphatemia, CTCAE Grade 3 and 4 AE, Number (%) of patients (259 mg/m^2, n = 6) | Musculoskeletal chest pain, AE of any grade, Number (%) of patients (259 mg/m^2, n = 6) | Serum amylase elevated, CTCAE Grade 3 and 4 AE, Number (%) of patients (259 mg/m^2, n = 6) | Spinal cord compression, CTCAE Grade 3 and 4 AE, Number (%) of patients (259 mg/m^2, n = 6) | ALT elevated, AE of any grade, Number (%) of patients (259 mg/m^2, n = 6, first of two ALT elevated lines) | ALT elevated, AE of any grade, Number (%) of patients (259 mg/m^2, n = 6, second of two ALT elevated lines) | Abdominal pain, serious adverse events, Number (%) of patients (7-114 mg/m^2, n = 25) | Asthenia, serious adverse events, Number (%) of patients (7-114 mg/m^2, n = 25) | Dehydration, serious adverse events, Number (%) of patients (7-114 mg/m^2, n = 25) | Hypokalemia, CTCAE Grade 3 and 4 AE, Number (%) of patients (7-114 mg/m^2, n = 25) | Pneumonia, serious adverse events, Number (%) of patients (7-114 mg/m^2, n = 25) | Arthralgia, CTCAE Grade 3 and 4 AE, Number (%) of patients (150-216 mg/m^2, n = 22)
11 (44) n (%): Anemia, AE of any grade, Number (%) of patients (7-114 mg/m^2, n = 25)
12 (48) n (%): Fatigue, AE of any grade, Number (%) of patients (7-114 mg/m^2, n = 25)
5 (20) n (%): AST elevated, AE of any grade, Number (%) of patients (7-114 mg/m^2, n = 25) | Constipation, AE of any grade, Number (%) of patients (7-114 mg/m^2, n = 25) | Hypophosphatemia, AE of any grade, Number (%) of patients (7-114 mg/m^2, n = 25) | ALT elevated, AE of any grade, Number (%) of patients (7-114 mg/m^2, n = 25, first of two ALT elevated lines)

— paper PMC3626541, “A first in human, safety, pharmacokinetics, and clinical activity phase I study of once weekly administration of the Hsp90 inhibitor ganetespib (STA-9090) in patients with solid malignancies” (BMC Cancer, 2013)
